In patent publication US11578343B2, “CAS9 proteins including ligand-dependent inteins” (President and Fellows of Harvard College, priority 2014, dated 2023):

Tests used:
Assay type in all cases: cell-based, human
genomic EGFP locus = test: Genomic EGFP disruption in HEK293-GFP stable cells (loss of GFP by flow cytometry); settings: for Loss of GFP expression / nuclease activity, in words: with or without 1 μM 4-HT, FIG. 3c
Procedure: HEK293-GFP stable cells were transfected with the Cas9 expression plasmid, a gRNA (targeting Emerald GFP; Guilinger et al., Nature Biotechnology (2014)), and iRFP670 (transfection control), using Lipofectamine 2000. Twelve hours after transfection, media, either containing 4-HT (1 μM) or without 4-HT, was added.
Five days after transfection, cells were trypsinized and analyzed on a flow cytometer. Cells lacking GFP indicated genome modification. Cas9 variants that induced minimal genome modification in the absence of 4-HT but induce significant genome modification in the presence of 4-HT were deemed small-molecule-regulated variants in this Example.
Additionally, a time course was performed in which incubation with 4-HT was limited to 2, 4, 8, 12 or 24 hours, after which point the media was replaced.
We genetically inserted the 4-HT-dependent intein at each of fifteen positions in Cas9 (Cys80, Ala127, Thr146, Ser219, Thr333, Thr519, Cys574, Thr622, Ser701, Ala728, Thr995, Ser1006, Ser1154, Ser1159, and Ser1274), chosen to distribute the location of the intein across the structural domains of Cas9^23 (FIG. 3b and Example 1). Because intein splicing leaves behind a single Cys residue, the intein was inserted in place of one Cas9 amino acid in each of the 15 candidate constructs. In addition to replacing natural Cys amino acids, we also favored replacing Ala, Ser, or Thr residues to minimize the likelihood that the resulting Cys point mutation resulting from protein splicing would disrupt Cas9 activity. The 15 intein-Cas9 candidates were expressed in HEK293-GFP cells together with a sgRNA that targets the genomic EGFP locus in these cells. Twelve hours post-transfection, cells were treated with or without 1 μM 4-HT. Five days post-transfection, cells were analyzed on a flow cytometer for loss of GFP expression from Cas9-mediated EGFP cleavage and subsequent non-homologous end joining.
Modification of genomic GFP. HEK293-GFP stable cells (GenTarget), which constitutively express Emerald GFP, served as the reporter cell line. Cells were maintained in “full serum media”: Dulbecco's Modified Eagle's Media plus GlutaMax (Life Technologies) with 10% (vol/vol) FBS and penicillin/streptomycin (1×, Amresco). 5×10^4 cells were plated on 48-well collagen-coated Biocoat plates (Becton Dickinson). 16-18 h after plating, cells were transfected with Lipofectamine 2000 (Life Technologies) according to the manufacturer's protocol. Briefly, 1.5 μL of Lipofectamine 2000 was used to transfect 650 ng of total plasmid: 500 ng Cas9 expression plasmid, 125 ng sgRNA expression plasmid, and 25 ng near-infrared iRFP670 expressing plasmid (Addgene plasmid 45457)^26. 12 h after transfection, the media was replaced with full serum media, with or without 4-HT (1 μM, Sigma-Aldrich T176). The media was replaced again 3-4 days after transfection. Five days after transfection, cells were trypsinized and resuspended in full serum media and analyzed on a C6 flow cytometer (Accuri) with a 488-nm laser excitation and 520-nm filter with a 20-nm band pass. Transfections and flow cytometry measurements were performed in triplicate.

EMX On = test: High-throughput DNA sequencing of genome modifications; settings: 500 ng Cas9 plasmid; for Mod. Freq (indels/total sequences), EMX On: Table 4; for Mod Freq (indels/total sequences), EMX On: +4-HT, Table 6
Procedure: (§1) We assayed these Cas9:sgRNA combinations in human cells for their ability to modify the three on-target loci as well as 11 known off-target genomic sites (Table 3)^4,5,10,13. Cells were treated with or without 1 μM 4-HT during transfection, and after 12 h the media was replaced with fresh media lacking 4-HT. […] Genomic DNA was isolated 60 h post-transfection and analyzed by high-throughput DNA sequencing
(§2) High-throughput DNA sequencing of genome modifications. HEK293-GFP stable cells were transfected with plasmids expressing Cas9 (500 ng) and sgRNA (125 ng) as described above. […] 4-HT (1 μM final), where appropriate, was added during transfection. 12 h after transfection, the media was replaced with full serum media without 4-HT. Genomic DNA was isolated and pooled from three biological replicates 60 h after transfection using a previously reported^11 protocol with a DNAdvance Kit (Agencourt). 150 ng or 200 ng of genomic DNA was used as a template to amplify by PCR the on-target and off-target genomic sites with flanking HTS primer pairs described previously^11. PCR products were purified using RapidTips (Diffinity Genomics) and quantified using the PicoGreen dsDNA Assay Kit (Invitrogen). Purified DNA was PCR amplified with primers containing sequencing adaptors, purified with the MinElute PCR Purification Kit (Qiagen) and AMPure XP PCR Purification (Agencourt). Samples were sequenced on a MiSeq high-throughput DNA sequencer (Illumina), and sequencing data was analyzed as described previously^4.
(§3) Sensitivity limit of off-target cleavage assays. We used paired end sequencing to identify indels caused by genomic on- and off-target cleavage. […] A 1 ng sample of human gDNA represents only ˜330 unique genomes, and thus only ˜330 unique copies of each genomic site are present. PCR amplification for each genomic target was performed on a total of 150 ng or 200 ng of input gDNA, which provides amplicons derived from at most 50,000 or 65,000 unique gDNA copies, respectively. Therefore, the high-throughput sequencing assay cannot detect rare genome modification events that occur at a frequency of less than approximately 1 in 50,000 (0.002%). When comparing between two conditions, such as wt Cas9 vs. intein-Cas9, this threshold becomes approximately 10 in 50,000 (0.02%) when using the Fisher exact test and a conservative multiple comparison correction (Bonferroni with 14 samples). See also Minoche, A. E., Dohm, J. C., & Himmelbauer, H. Evaluation of genomic high-throughput sequencing data generated on Illumina HiSeq and Genome Analyzer systems. Genome Biology 12, R112 (2011).

VEGF On = test: as above; settings: 500 ng Cas9 plasmid; for Mod. Freq (indels/total sequences), VEGF On: Table 4; for Mod Freq (indels/total sequences), VEGF On: +4-HT, Table 6
Procedure: as §1, §2, §3

EMX Off 3 = test: as above; settings: 500 ng Cas9 plasmid; for Mod. Freq (indels/total sequences), EMX Off 3: Table 4; for Mod Freq (indels/total sequences), EMX Off 3: +4-HT, Table 6
Procedure: as §1, §2, §3

VEGF Off 4 = test: as above; settings: 500 ng Cas9 plasmid; for Mod. Freq (indels/total sequences), VEGF Off 4: Table 4; for Mod Freq (indels/total sequences), VEGF Off 4: +4-HT, Table 6
Procedure: as §1, §2, §3

[1] = test system: EMX, VEGF, and CLTA genomic loci; test: High-throughput DNA sequencing of genome modifications, summary over on-target and off-target sites
Procedure: as §1, §2, §3

[2] = +4-HT 2 hrs, then media replaced, Table 2
[3] = +4-HT 4 hrs, then media replaced, Table 2
[4] = +4-HT 8 hrs, then media replaced, Table 2
[5] = +4-HT 12 hrs, then media replaced, Table 2
[6] = +4-HT 24 hrs, then media replaced, Table 2
[7] = +4-HT (1 μM, added 12 h after transfection), five days after transfection, Table 1
[8] = −4-HT, five days after transfection, Table 1

Substance	Cells without GFP (%) (genomic EGFP locus; [2])	Cells without GFP (%) (genomic EGFP locus; [3])	Cells without GFP (%) (genomic EGFP locus; [4])	Cells without GFP (%) (genomic EGFP locus; [5])	Cells without GFP (%) (genomic EGFP locus; [6])	Cells without GFP (%) (genomic EGFP locus; [7])	Cells without GFP (%) (genomic EGFP locus; [8])	Cells without GFP (%) (genomic EGFP locus; −4-HT, time course, Table 2)	Mod. Freq (indels/total sequences), EMX On (EMX On; +4-HT (1 μM, 12 h))	Mod. Freq (indels/total sequences), EMX On (EMX On; −4-HT)	Mod. Freq (indels/total sequences), VEGF On (VEGF On; +4-HT (1 μM, 12 h))	Mod Freq (indels/total sequences), VEGF On (VEGF On)	Mod. Freq (indels/total sequences), VEGF On (VEGF On; −4-HT)	Mod. Freq (indels/total sequences), EMX Off 3 (EMX Off 3; +4-HT (1 μM, 12 h))	Mod Freq (indels/total sequences), EMX Off 3 (EMX Off 3)	Mod. Freq (indels/total sequences), EMX Off 3 (EMX Off 3; −4-HT)	Mod. Freq (indels/total sequences), VEGF Off 4 (VEGF Off 4; +4-HT (1 μM, 12 h))	Mod Freq (indels/total sequences), VEGF Off 4 (VEGF Off 4)	Mod. Freq (indels/total sequences), VEGF Off 4 (VEGF Off 4; −4-HT)	Activity compared to wild-type Cas9 ([1]; absence of 4-HT)	also measured
intein(Cys574)-Cas9: Cas9 with 37R3-2 intein replacing Cys574 (SEQ ID NO: 33)	14.57%	13.11%	16.91%	16.10%	14.52%	21.44%	5.74%	2.91%	9.47%	0.99%	3.03%	2.31%	0.85%	0.29%	0.25%	0.02%	1.40%	0.91%	0.07%	much less active	Loss of GFP expression / nuclease activity, in words (genomic EGFP locus; listed as C574): 4-HT-dependent loss of GFP expression and high activity in the presence of 4-HT and low activity in the absence of 4-HT; Mod Freq (indels/total sequences), EMX On (EMX On; listed as intein-Cas9 (C574)): 6.42%; Mod Freq (indels/total sequences), EMX On (EMX On; listed as intein-Cas9(C574)): 6.4%; Off-target modification frequency, average fold lower than wild-type Cas9 (80 ng) ([1]; EMX locus, all four off-target sites, +4-HT, similar on-target cleavage): 4 fold; Activity compared to wild-type Cas9 ([1]; presence of 4-HT): slightly less active than wild-type Cas9
intein(Ser219)-Cas9: Cas9 with 37R3-2 intein replacing Ser219 (SEQ ID NO: 30)	17.25%	17.07%	15.12%	15.28%	24.39%	23.98%	6.53%	3.92%	13.57%	1.87%	3.66%	3.17%	1.05%	0.77%	0.54%	0.05%	3.89%	2.03%	0.10%	much less active	Loss of GFP expression / nuclease activity, in words (genomic EGFP locus; listed as 5219): 4-HT-dependent loss of GFP expression and high activity in the presence of 4-HT and low activity in the absence of 4-HT; Mod Freq (indels/total sequences), EMX On (EMX On): 8.25%; Activity compared to wild-type Cas9 ([1]; presence of 4-HT): slightly less active than wild-type Cas9
